Measured values published in US20030104079A1, “Skin tissue regeneration promoters comprising ginsenoside Rb1” (Japan Science and Technology Corporation, Japan, priority 2000, published 2003).

Legend:
[1] = system: cerebral infarct lesion; design: therapeutic effect for cerebral apoplexy and cerebral infarction: dose or concentration left out as unconfirmed; settings: cited from earlier work
[2] = system: skin fibroblast; settings: extracellular concentration 10 μg/ml; cited from earlier work
[3] = system: spinal cord injury; settings: continuous intravenous administration 60 pg/day; cited from earlier work
[4] = system: open wound of skin; test: Open wound (skin defect) healing by intravenous infusion after punch biopsy; type: in vivo, Wistar rats; settings: vs physiological saline
Experimental: We have examined whether intravenous administration of ginsenoside Rb1 at low dosages or low doses can promote regeneration and/or reconstruction of skin tissue in diseases with defect of skin tissue (bedsore, skin ulcer, burn, frostbite, radiation injury, open wound, ultraviolet injury, electric injury, etc.). For that purpose, for example, by using male Wistar rats (body weight about 300 g), punch biopsy with diameter 6 mm was performed in the dorsal skin region of animals under inhalation anesthesia to prepare open wound, and the animals were allowed to leave as they were. About 1 hour later, ginsenoside Rb1 (12 μg) dissolved in physiological saline was once administered intravenously, then ginsenoside Rb1 was continuously infused intravenously for 7 days by using an Alza osmotic minipump (12 μg/day).
An equal amount of physiological saline was administered intravenously in the control animals, for which the same open wound was made to leave the animals as they were.
On day 2 after finishing continuous intravenous administration of ginsenoside Rb1 or physiological saline, the animals were anesthetized with pentobarbital and fixed transcardialy with perfusion of 0.1 M phosphate buffer containing 4% paraformaldehyde. Thereafter, the skin tissue including the open wound was dissected out, post-fixed and embedded in paraffin. […]

[5] = system: incised wound of skin; test: Incised wound healing by intravenous infusion; type: in vivo, Wistar rats; settings: vs physiological saline
Experimental: In order to investigate the effects of low dosages, low doses or low concentrations of ginsenoside Rb1 on regeneration and/or reconstruction of skin tissue, the effect(s) of continuous intravenous infusion of ginsenoside Rb1 on incised wound of skin which enabled us to observe easily regeneration phenomena of tissues or cells was examined. Male, Wistar rats (body weight about 300 g) were used. The animals were bred in a room with a 12:12 hour light-dark cycle, and water and feed were supplied ad libitum. Incised wound with length about 3 cm was made in the dorsal region of animals under inhalation anesthesia, and sutured with nylon thread. One hour later, ginsenoside Rb1 (60 μg) dissolved in physiological saline was once intravenously injected. Thereafter continuous intravenous infusion of ginsenoside Rb1 (60 μg/day) was performed for 7 days by using an Alza osmotic minipump.
An equal amount of physiological saline was administered intravenously in the control animals, for which the same […] was made and sutured with nylon thread.
On day 2 after finishing continuous intravenous administration of ginsenoside Rb1 or physiological saline, the animals were anesthetized with pentobarbital and perfused transcardially with 0.1 M phosphate buffer containing 4% paraformaldehyde. […]

[6] = system: Bcl-xL gene; settings: continuous intravenous administration 60 μg/day; cited from earlier work
[7] = system: permanent occlusion of the cortical branch of the middle cerebral artery; settings: infused into the cerebroventricles of cerebral infarcted rats; cited from earlier work

CC(C)=CCC[C@](C)(O[C@@H]1O[C@H](CO[C@@H]2O[C@H](CO)[C@@H](O)[C@H](O)[C@H]2O)[C@@H](O)[C@H](O)[C@H]1O)[C@H]1CC[C@]2(C)[C@@H]1[C@H](O)C[C@@H]1[C@@]3(C)CC[C@H](O[C@@H]4O[C@H](CO)[C@@H](O)[C@H](O)[C@H]4O[C@@H]4O[C@H](CO)[C@@H](O)[C@H](O)[C@H]4O)C(C)(C)[C@@H]3CC[C@]12C [ginsenoside Rb1]
therapeutic effect for cerebral infarction and cerebral apoplexy ([1]; continuous intravenous administration 6 μg/day): superior therapeutic effect | therapeutic effect for cerebral apoplexy and cerebral infarction ([1]; continuous intravenous administration): superior therapeutic effect | volume of cerebral infarct lesion ([1]; intravenous continuous administration of low dosages, JP Appln. No. Hei 10-365560): about ¼ | production of elastin [2]: can promote production of elastin in the skin fibroblast | standing up of bed-ridden rats with spinal cord injury [3]: could stand up bed-ridden rats | scar or granulation formation in open wound (HE histology, FIG. 2) ([4]; 12 μg once then 12 μg/day continuous iv for 7 days after 6 mm punch biopsy): scar or granulation formation was obviously little | epithelization of open wound (FIG. 2) ([4]; 12 μg/day continuous iv for 7 days after 6 mm punch biopsy): sufficient epithelization occurred | scar or granulation formation in incised wound (HE histology, FIG. 1) ([5]; 60 μg/day continuous iv for 7 days after one iv infusion, two days after end of infusion): scar or granulation formation was obviously little | regeneration and reconstruction of epidermis, dermis and subcutaneous tissue after incised wound ([5]; 60 μg/day continuous iv for 7 days): regenerated, reconstructed or recovered to the nearly normal condition | expression of cell death-suppressing factor Bcl-xL gene in brain and nervous tissues [6]: caused an increase in the expression | cerebral infarction and place navigation disability [7]: cerebral infarction-reducting effect and place navigation disability-improving effect were observed
